Key:
M4 muscarinic receptor = target: T1, M4 muscarinic receptor (Homo sapiens, UniProt P08173); assay: Functional mobilization of intracellular calcium (FLIPR), M4-CHO cells; type: cell-based; settings: for Emax: 100% efficacy is the maximum response obtained with the Carbachol control; for M4 Activity: CHO cells expressing M4, calcium mobilization
T1 construct: expressed in transfected cells; host or cells: CHO (M4-CHO)
T1 sequence (P08173 1-479): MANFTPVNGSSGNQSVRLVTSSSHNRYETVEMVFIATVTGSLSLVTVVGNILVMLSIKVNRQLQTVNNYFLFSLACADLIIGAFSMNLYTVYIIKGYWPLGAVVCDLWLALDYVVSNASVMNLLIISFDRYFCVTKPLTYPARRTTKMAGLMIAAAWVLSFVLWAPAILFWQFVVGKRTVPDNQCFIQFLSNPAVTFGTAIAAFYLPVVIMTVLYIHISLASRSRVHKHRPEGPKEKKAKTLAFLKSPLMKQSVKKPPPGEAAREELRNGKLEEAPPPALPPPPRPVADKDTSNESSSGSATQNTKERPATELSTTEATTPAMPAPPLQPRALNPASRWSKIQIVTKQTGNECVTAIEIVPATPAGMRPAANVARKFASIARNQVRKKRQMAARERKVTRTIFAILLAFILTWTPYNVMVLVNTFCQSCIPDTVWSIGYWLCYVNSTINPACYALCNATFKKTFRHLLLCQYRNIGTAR
Experimental: (§1) Functional Mobilization of Intracellular Calcium to Determine Muscarinic Receptor Activity:
(§2) CHO cells expressing muscarinic receptors (M1 to M5) are grown as monolayers in tissue culture flasks at 37° C. in a humidified atmosphere containing 5% CO2 and passaged every 3-5 days. The growth media is Dulbecco's modified eagles medium (DMEM, Gibco Cat#12430-054), containing 25 mM Hepes and supplemented with Fetal Bovine Serum (Hyclone, cat# SH30071.03), 0.1 mM of MEM non-essential amino acids (GIBCO, Cat#11140-050), 1 mM MEM Sodium Pyruvate (GIBCO Cat#11360-070) and 100 units/ml of Penicillin G and 100 μg/ml of Streptomycin (GIBCO Cat#15140-122). The recombinant muscarinic receptor cell lines are grown under antibiotic pressure with media containing 25 μg/ml zeocin and 500 μg/ml G418 (M1-CHO), 4 μg/ml puromycin, 50 μg/ml zeocin and 2.5 μg/ml blasticidin (M2 and M4-CHO) or 50 μg/ml zeocin and 4 μg/ml puromycin (M3 and M5-CHO).
(§3) Cells are harvested at 80-90% confluence using Versene (GIBCO Cat#15040-066), collected by centrifugation and seeded 18-24 hours prior to running the calcium assay at a density of 5,000-10,000 cells/well in […], clear-bottomed 384-well plates (BD Biocoat, poly-D-lysine, Cat#356663). The day of the experiment, the cells are washed with a plate washer (Bioteck Instrunents, ELX 405) using bath 1 buffer (140-mM NaCl, 4.5-mM KCl, 2-mM CaCl2, 1-mM MgCl2, 10-mM Hepes-Na, 10-mM Glucose, pH 7.4, with NaOH) containing 1 mM Probenecid. Next, the calcium dye Fluo-3 (25 μl/well of Fluo-3 AM at 4 μM, Molecular Probes F-1241, in Bath 1 buffer containing 1 mM Probenecid) is added to the 25 μl of Bath 1 remaining in each well after the plate wash and the dye is loaded at 37° C. in the tissue culture incubator for 60-90 min. The fluorescent dye is removed using the plate washer with Bath 1 containing 1 mM Probenecid, leaving 25 μl/well of this solution after the wash. Alternatively, cells can be loaded with the calcium indicator from Molecular Devices (Calcium 3 Assay Reagents, Cat # R7181) adding 5 μl of a 5× solution dye in Bath 1 containing 1 mM Probenecid (10 ml per dye flask cat# R7182 to generate a solution 20×) to 20 μl of the same buffer. After loading for 60 min, the experiment can be run without having to remove the dye.
(§4) Compounds are prepared at a 2× fold concentration in a 96-well plate (round bottom, Costar Corning cat#3656), by reconstituting the pre-spotted compounds in bath 1 containing 1 mM probenecid. The final concentration DMSO is 0.5%, and the amount of DMSO is normalized across the assay plate. To determine an agonist action of the compounds on muscarinic receptors, the reconstituted compounds are added (25 μl compound/well) to the cell assay plate (containing 25 μl/well) using the multi-channel robotic system of the FLIPR 3 Instrument (Molecular Devices, Sunnyvale, Calif.). To determine a functional inhibitory action of the compounds on muscarinic receptors, the reconstituted compounds are added (25 μl compound/well) to the assay plate and pre-incubated for 15 min prior to adding 25 μl of Carbachol at 3× the EC80 for each muscarinic subtype. Alternatively, the compounds can be co-applied simultaneously with the agonist. In both assay modes, the fluorescence is recorded for 60 sec (excitation wavelength is […] and emission wavelength 540 nm) using the FLIPR 3 instrument.
(§5) The potency, efficacy and selectivity of the muscarinic compounds were evaluated by screening the compound activity across the whole family (M1 to M5 cells). Compounds were also screened for activity on other proteins such as other GPCRs and ion channels to determine selectivity on M4 receptors.
(§6) Examples of activities and efficacies of the muscarinic compounds of formulae (I, Ia, Ib, Ic, Id, and Ie) on modulating M1 and M4 receptors are shown below in Table 4. […]

M1 muscarinic receptor = target: T2, M1 muscarinic receptor (Homo sapiens, UniProt P11229); assay: Functional mobilization of intracellular calcium (FLIPR), M1-CHO cells; type: cell-based; settings: for Emax: 100% efficacy is the maximum response obtained with the Carbachol control; for M1 Activity: CHO cells expressing M1, calcium mobilization
T2 construct: expressed in transfected cells; host or cells: CHO (M1-CHO)
T2 sequence (P11229 1-460): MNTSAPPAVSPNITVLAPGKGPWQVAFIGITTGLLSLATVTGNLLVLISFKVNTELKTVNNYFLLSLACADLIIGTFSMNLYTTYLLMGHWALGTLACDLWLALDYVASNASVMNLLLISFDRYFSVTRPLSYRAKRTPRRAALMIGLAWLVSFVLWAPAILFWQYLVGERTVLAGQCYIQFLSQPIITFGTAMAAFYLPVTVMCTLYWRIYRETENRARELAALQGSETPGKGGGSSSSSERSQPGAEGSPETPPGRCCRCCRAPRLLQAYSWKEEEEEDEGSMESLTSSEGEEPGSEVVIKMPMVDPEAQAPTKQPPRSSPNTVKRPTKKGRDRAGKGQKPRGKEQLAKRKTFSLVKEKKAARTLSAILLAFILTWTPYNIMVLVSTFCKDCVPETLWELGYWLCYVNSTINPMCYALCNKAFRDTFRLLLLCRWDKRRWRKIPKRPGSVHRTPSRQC
Experimental: as §1, §2, §3, §4, §5, §6

How did the Emax (M4 muscarinic receptor) turn out when CN(C)C(=O)N[C@H]1CC2(CCN(C3CC4CC[C@@H]3C4)CC2)c2ccccc21 (stereo in doubt) [Compound No. 119, 3-((S)-1′-((1R,2S,4S)-bicyclo[2.2.1]heptan-2-yl)-2,3-dihydrospiro[indene-1,4′-piperidine]-3-yl)-1,1-dimethylurea] was run?
Its Emax is 25 to 100%.

What about the “M4 Activity” value (M4 muscarinic receptor) of the same compound?
Its value is “+++ (activity was measured to be less than 2.0 μM)”.

What about the Emax (M1 muscarinic receptor) of the same compound?
The Emax was under 25%.

And the “M1 Activity” value (M1 muscarinic receptor)?
The value was “+ (activity was measured to be greater than 10.0 μM)”.

For CC#CCOC(=O)N1CCC(N2CCC3(CCN(C(=O)N(C)C)c4ccccc43)CC2)CC1 [Compound No. 5, but-2-ynyl 4-(1′-(dimethylcarbamoyl)-2′,3′-dihydro-1′H-spiro[piperidine-4,4′-quinoline]-1-yl)piperidine-1-carboxylate], which Emax (M4 muscarinic receptor) is on record?
Its Emax is 25 to 100%.

What about the “M4 Activity” value (M4 muscarinic receptor) of the same compound?
The value was “+++ (activity was measured to be less than 2.0 μM)”.

And the Emax (M1 muscarinic receptor)?
The Emax was 25 to 100%.

And the “M1 Activity” value (M1 muscarinic receptor)?
Its value is “+++ (activity was measured to be less than 2.0 μM)”.

Which results are given for Cc1cncc(N2CCC(N3CCC4(CCN(C(=O)N(C)C)c5ccccc54)CC3)CC2)n1 [Compound No. 9, N,N-dimethyl-1-(1-(6-methylpyrazin-2-yl)piperidin-4-yl)-2′,31-dihydrospiro[piperidine-4,4′-quinoline]-1′-carboxamide]?
Emax (M4 muscarinic receptor): 25 to 100%; M4 Activity (M4 muscarinic receptor): +++ (activity was measured to be less than 2.0 μM); Emax (M1 muscarinic receptor): 25 to 100%; M1 Activity (M1 muscarinic receptor): +++ (activity was measured to be less than 2.0 μM)

How did the Emax (M4 muscarinic receptor) turn out when CCOC(=O)N1CCC(N2CCC3(CCN(C(C)=O)c4ccccc43)CC2)CC1 [Compound No. 11, ethyl 4-(1′-acetyl-2′,3′-dihydro-1′H-spiro[piperidine-4,4′-quinoline]-1-yl)piperidine-1-carboxylate] was run?
The Emax was over 100%.

What about the “M4 Activity” value (M4 muscarinic receptor) of the same compound?
Its value is “+++ (activity was measured to be less than 2.0 μM)”.

What about the Emax (M1 muscarinic receptor) of the same compound?
Its Emax is over 100%.

What about the “M1 Activity” value (M1 muscarinic receptor) of the same compound?
The value was “+++ (activity was measured to be less than 2.0 μM)”.

How did the Emax (M4 muscarinic receptor) turn out when Cc1ncc(N2CCC(N3CCC4(CCN(C(=O)N(C)C)c5ccccc54)CC3)CC2)nc1C [Compound No. 20, 1-(1-(5,6-dimethylpyrazin-2-yl)piperidin-4-yl)-N,N-dimethyl-2′,3′-dihydrospiro[piperidine-4,4′-quinoline]-1′-carboxamide] was run?
The Emax was 25 to 100%.

And the “M4 Activity” value (M4 muscarinic receptor)?
The value was “+++ (activity was measured to be less than 2.0 μM)”.

And the Emax (M1 muscarinic receptor)?
Its Emax is 25 to 100%.

And the “M1 Activity” value (M1 muscarinic receptor)?
The value was “++ (activity was measured to be from 2.0 μM to 10.0 μM)”.

What does the source list for C#CCOC(=O)N1C2CCC1CC(N1CCC3(CCN(C(=O)N(C)C)c4ccccc43)CC1)C2 (stereo not shown) [Compound No. 28, prop-2-ynyl 3-(1′-(dimethylcarbamoyl)-2′,3′-dihydro-1′H-spiro[piperidine-4,4′-quinoline]-1-yl)-8-azabicyclo[3.2.1]octane-8-carboxylate]?
Emax (M4 muscarinic receptor): 25 to 100%; M4 Activity (M4 muscarinic receptor): +++ (activity was measured to be less than 2.0 μM); Emax (M1 muscarinic receptor): 25 to 100%; M1 Activity (M1 muscarinic receptor): +++ (activity was measured to be less than 2.0 μM)

Which Emax (M4 muscarinic receptor) does the source give for CCc1nsc(N2C3CCC2CC(N2CCC4(CCN(C(=O)N(C)C)c5ccccc54)CC2)C3)n1 (stereo not shown) [Compound No. 32, 1-(8-(3-ethyl-1,2,4-thiadiazol-5-yl)-8-azabicyclo[3.2.1]octan-3-yl)-N,N-dimethyl-2′,3′-dihydro-1′ H-spiro[piperidine-4,4′-quinoline]-1′-carboxamide] here?
The Emax was 25 to 100%.

And the “M4 Activity” value (M4 muscarinic receptor)?
Its value is “+++ (activity was measured to be less than 2.0 μM)”.

And the Emax (M1 muscarinic receptor)?
The Emax was 25 to 100%.

And the “M1 Activity” value (M1 muscarinic receptor)?
Its value is “+++ (activity was measured to be less than 2.0 μM)”.

Which Emax (M4 muscarinic receptor) does the source give for CCOC(=O)N1CCC(N2CCC3(CC2)CN(C(=O)N(C)C)c2ccccc23)CC1 [Compound No. 39, ethyl 4-(1-(dimethylcarbamoyl)spiro[indoline-3,4′-piperidine]-1′-yl)piperidine-1-carboxylate] here?
The Emax was 25 to 100%.

What about the “M4 Activity” value (M4 muscarinic receptor) of the same compound?
The value was “+++ (activity was measured to be less than 2.0 μM)”.

And the Emax (M1 muscarinic receptor)?
Its Emax is 25 to 100%.

And the “M1 Activity” value (M1 muscarinic receptor)?
Its value is “+++ (activity was measured to be less than 2.0 μM)”.

For Cc1nsc(N2C3CCC2CC(N2CCC4(CC2)CN(C(=O)N(C)C)c2ccccc24)C3)n1 (stereo not shown) [Compound No. 65, N,N-dimethyl-1′-(8-(3-methyl-1,2,4-thiadiazol-5-yl)-8-azabicyclo[3.2.1]octan-3-yl)spiro[indoline-3,4′-piperidine]-1-carboxamide], which Emax (M4 muscarinic receptor) is on record?
Its Emax is 25 to 100%.

What about the “M4 Activity” value (M4 muscarinic receptor) of the same compound?
Its value is “+++ (activity was measured to be less than 2.0 μM)”.

What about the Emax (M1 muscarinic receptor) of the same compound?
The Emax was 25 to 100%.

And the “M1 Activity” value (M1 muscarinic receptor)?
The value was “+++ (activity was measured to be less than 2.0 μM)”.

CN(C)C(=O)N1CC2(CCN(C3CC4CCC(C3)N4c3cnccn3)CC2)c2ccccc21 (stereo not shown) [Compound No. 103, N,N-dimethyl-1′-(8-(pyrazin-2-yl)-8-azabicyclo[3.2.1]octan-3-yl)spiro[indoline-3,4′-piperidine]-1-carboxamide] was tested. Which Emax (M4 muscarinic receptor) did it give?
Its Emax is over 100%.

And the “M4 Activity” value (M4 muscarinic receptor)?
Its value is “+++ (activity was measured to be less than 2.0 μM)”.

What about the Emax (M1 muscarinic receptor) of the same compound?
The Emax was 25 to 100%.

What about the “M1 Activity” value (M1 muscarinic receptor) of the same compound?
The value was “+++ (activity was measured to be less than 2.0 μM)”.

What does the source list for CCOC(=O)N1C2CCC1CC(N1CCC3(CCN(C(C)=O)c4ccccc43)CC1)C2 (stereo not shown) [compound 1]?
Emax (M4 muscarinic receptor): 25 to 100%; M4 Activity (M4 muscarinic receptor): +++ (activity was measured to be less than 2.0 μM); Emax (M1 muscarinic receptor): 25 to 100%; M1 Activity (M1 muscarinic receptor): +++ (activity was measured to be less than 2.0 μM)

Which results are given for COC(=O)N1CCC(N2CCC3(CCN(C(=O)N(C)C)c4ccccc43)CC2)CC1 [compound 2]?
Emax (M4 muscarinic receptor): 25 to 100%; M4 Activity (M4 muscarinic receptor): +++ (activity was measured to be less than 2.0 μM); Emax (M1 muscarinic receptor): 25 to 100%; M1 Activity (M1 muscarinic receptor): +++ (activity was measured to be less than 2.0 μM)

Which results are given for CCOC(=O)N1CCC(N2CCC3(CCN(C(=O)N(C)C)c4ccccc43)CC2)CC1 [compound 3]?
Emax (M4 muscarinic receptor): > 100%; M4 Activity (M4 muscarinic receptor): +++ (activity was measured to be less than 2.0 μM); Emax (M1 muscarinic receptor): 25 to 100%; M1 Activity (M1 muscarinic receptor): +++ (activity was measured to be less than 2.0 μM)

From US8263605B2, “Modulators of muscarinic receptors” (Vertex Pharmaceutical Incorporated, priority 2006, dated 2012)
